Where “and” joins values, the source holds several entries; their conditions need not be identical. Equal values may be shown once.
Legend:
GHOST(3) X4/R5 cell line = test: XTT cell viability in the CD4-dependent transmission assay; type: cell-based, human
Protocol: The […] is carried out essentially as described for the CD4-independent transmission assay except for the use of the CD4 positive GHOST(3) X4/R5 cell line. This cell line is derived from the HOS (human osteosarcoma) cell line that is negative for HIV coreceptor and CD4 expression. The cell line is engineered to express T4 (CD4), R5 and X4 via non-selectable retroviral vectors and an HIV-2 LTR hGFP construct with a hygromycin selectable marker. The cell lines are handled and cultured as described above for the CD4-independent HIV inhibition assay, with the exception that 2.5×10^4 GHOST(3) X4/R5 and 5×10^2 mitomycin C treated H9/SK-1 cells are used in the assay. Addition of compounds, mitomycin C treatment and post-transmission washing to remove the H9/SK-1 cells are performed as described above to allow comparability of the two antiviral assays. Virus replication is assessed at 24 h post infection, following 3 washes, by measurement of cell-associated p24 by ELISA to ensure a single round of infection in the presence of CD4. Compound toxicity and cell viability are assessed by XTT dye reduction.

HSV-2 = test: Genital HSV prevention test in the mouse model; type: in vivo
Protocol: The efficacy of SPL-7013 was tested in a genital HSV prevention test in the mouse (strain MS) model. A dose of 15 μl of 100 mg/ml, or 10 mg/ml of the compound was instilled into the vagina of 16 animals 20 sec before HSV-2 infection. […] Total mortality in three days of the same number of control infected mice was used as an end-point of the tests.

[1] = system: viral strains of Herpes virus-2 resistant to modified nucleoside based antiviral agents; settings: cell tests
PBMCs = test: MTS cell viability in PBMC assay; type: cell-based, human
Text: Human peripheral blood mononuclear cells from a minimum of 2 donors, that have been blasted with PHA and IL-2, were counted, viability determined by Trypan Blue dye exclusion and mixed in equal ratios. Pooled donors were used to minimize the variability observed between individual donors which results from quantitative and qualitative differences in HIV infection and overall response to the PHA and IL-2 of primary lymphocyte populations. The cells were resuspended at 1×10^6 cells/mL in RPMI 1640 without phenol red supplemented with 15% Fetal Bovine Serum (heat inactivated), 2 mM L-glutamine, 100 U/mL penicillin, 100 μg/mL streptomycin, 10 μg/mL gentamycin and IL-2 (20 U/mL, R&D Systems, Minneapolis, Minn.). Fifty microliters of cells were then distributed to the inner 60 wells of a 96 well round bottom microtiter culture plate in a standard format developed by the Infectious Disease Research department of Southern Research Institute. Each plate contains cell control wells (cells only), virus control wells (cells plus virus), and experimental wells (drug plus cells plus virus). Serially diluted compounds are added to the microtiter plate followed by the appropriate pre-titered strain of HIV-1 or SHIV-1. All samples were assayed in triplicate with a replicate plate without virus for the determination of compound toxicity. The final volume per well was 200 µL. The assay was incubated for 6 days in a humidified atmosphere at 37° C., 5% CO2, after which supernatants were collected, for analysis of RT activity and sister plates analyzed for cell viability by MTS dye reduction. Wells were also examined microscopically and any abnormalities noted.
At assay termination the assay plates were stained with the soluble tetrazolium-based dye MTS (CellTiter® Reagent Promega, Madison, Wis.) to determined cell viability and quantify compound toxicity. […] At termination of the PBMC assay 20 µL of MTS reagent was added per well, and the wells are incubated for 4 h at 37° C.
AZT has been used as a relevant positive control compound for the individual assays.

HIV-2 (ROD) = test: Anti-retroviral activity in HIV-infected MT-4 cells (MTT); type: cell-based; settings: strain ROD (HIV-2)
Protocol: The human immunodeficiency virus strains used were HIV-1 (IIIB)^1 and HIV-2 (ROD)^2. Anti-retroviral activity and cytotoxicity measurements were carried out in parallel. […] After the MT-4 cells were allowed to proliferate for 5 days, the number of viable cells was quantified by a tetrazolium-based calorimetric 3-(4,5-dimethylthiazol-2-yl)-2,5-diphenyltetrazolium bromide (MTT) procedure in 96-well microtrays.^3
In all of these assays, viral input (viral multiplicity of infection, MOI) was 0.01, or 100 times the 50% cell culture infective dose (CCID50). […] Average EC50 and CC50 values for several separate experiments are presented as defined above. […] SI is the antiviral selectivity index CC50/EC50.

[2] = biological target: T1, cell-to-cell fusion mediated by HIV-1 Env and CD4 (Human immunodeficiency virus type 1 group M subtype B, UniProt P04578); type: cell-based; settings: TC50/IC50
T1 construct: expressed in transfected cells; host or cells: HeLa CD4 LTR beta-gal cells (CD4) co-cultured with HL2/3 cells (HIV-1 Env)
Protocol: The fusion assay assesses the ability of compounds to block cell-to-cell fusion mediated by HIV-1 Env and CD4 expressed on separate cells. This assay is sensitive to inhibitors of both the gp120/CD4 interaction and inhibitors of the X4 coreceptor. First, 5×10^3 HeLa CD4 LTR […]-gal cells are placed in microtiter wells and incubated overnight. The following day the media is removed and the HeLa CD4 LTR […]-gal cells are incubated for 1 h at 37° C. in fresh media with test compound. Following the incubation 5×10^3 HL2/3 cells are added and the incubation continued for 40 to 48 h. At 40 to 48 h […]-galactosidase enzyme expression is detected by chemiluminescence (Tropix Gal-screen™, Tropix, Bedford, Mass.). Compound toxicity is monitored on a sister plate using XTT dye reduction.

[3] = 100 mg/ml intravaginal, 20 sec. prior to infection

Q: How did the “CD4-Dependent Transmission Assay TC50” value (GHOST(3) X4/R5 cell line) turn out when “BHAlyslys2lys4lys8lys16[NH—CO—CH2)O-3,6-Naphthyl-(SO3Na)2]32 [SPL-7013]” was run?
A: >100 µg/mL

Q: What about the “Animals Protected Against Infection (%)” value (HSV-2; 10 mg/ml intravaginal, 20 sec. prior to infection) of the same substance?
A: 10/12 (83%)

Q: What about the “Animals Protected Against Disease (%)” value (HSV-2; [3]) of the same substance?
A: 11/11 (100%) and 12/12 (100%)

Q: And the “Animals Protected Against Infection (%)” value (HSV-2; [3])?
A: 11/11 (100% and 12/12 (100%

Q: What about the “Prevention of HSV-2 infection and disease (in words)” value (HSV-2; 15 μl of 100 mg/ml or 10 mg/ml intravaginal 20 sec before HSV-2 infection) of the same substance?
A: prevented infection and disease in all animals tested

Q: And the “Activity against resistant Herpes virus-2 strains (in words)” value [1]?
A: shown activity

Q: And the “HIV-1 RoJo Infected PBMCs TC50” value (PBMCs; plate of the HIV-1 RoJo test)?
A: >100 µg/mL

Q: What about the “SHIV 89.6pd Infected PBMCs TC50” value (PBMCs; plate of the SHIV 89.6pd test) of the same substance?
A: >100 µg/mL

Q: And the EC90 (HIV-2 (ROD))?
A: 4.86 µg/mL

Q: And the EC50 (HIV-2 (ROD); 5 days)?
A: 3.26 µg/mL

Q: And the “Fusion Assay TI” value [2]?
A: >141

From patent US8158575B2, “Agent for the prevention and treatment of sexually transmitted diseases-I” (priority 2001, dated 2012)
